Legend:
[1] = test system: corn; assay: Preemergent control of plant species; type: in vivo, Zea mays; settings: Zea mays, pre-emergence, 336 h; 0.25 lb/acre; read-out: percent preemergent control
Method in brief: (§1)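 Seeds sown in agricultural soil beds in a greenhouse received aqueous emulsions of test compositions applied uniformly over the bed surface at the listed rates; water-treated beds served as control. After two weeks under greenhouse growth conditions, control was scored as growth reduction versus untreated plants of the same species.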

[2] = test system: cotton; assay: Preemergent control of plant species; type: in vivo, Gossypium spp.; settings: Gossypium hirsutum, pre-emergence, 336 h; 0.25 lb/acre; read-out: percent preemergent control
Method in brief: as §1

[3] = test system: rape; assay: Preemergent control of plant species; type: in vivo, Brassica napus; settings: Brassica napus, pre-emergence, 336 h; 0.25 lb/acre; read-out: percent preemergent control
Method in brief: as §1

[4] = test system: wild oats; assay: Preemergent control of plant species; type: in vivo; settings: Avena fatua, pre-emergence, 336 h; 0.25 lb/acre; read-out: percent preemergent control
Method in brief: as §1

[5] = test system: soybean; assay: Preemergent control of plant species; type: in vivo, Glycine max.; settings: Glycine max, pre-emergence, 336 h; 0.25 lb/acre; read-out: percent preemergent control
Method in brief: as §1

[6] = test system: barnyardgrass; assay: Preemergent control of plant species; type: in vivo, Echinochloa crusgalli; settings: Echinochloa crus-galli, pre-emergence, 336 h; 0.25 lb/acre; read-out: percent preemergent control
Method in brief: as §1

[7] = test system: velvetleaf; assay: Preemergent control of plant species; type: in vivo, Abutilon theophrasti; settings: Abutilon theophrasti, pre-emergence, 336 h; 0.25 lb/acre; read-out: percent preemergent control
Method in brief: as §1

[8] = test system: yellow nutsedge; assay: Preemergent control of plant species; type: in vivo, Cyperus esculentus; settings: Cyperus, pre-emergence, 336 h; 0.25 lb/acre; read-out: percent preemergent control
Method in brief: as §1

[9] = test system: yellow foxtail; assay: Preemergent control of plant species; type: in vivo, Setaria lutescens; settings: Setaria, pre-emergence, 336 h; 0.25 lb/acre; read-out: percent preemergent control
Method in brief: as §1

[10] = test system: johnson grass; assay: Preemergent control of plant species; type: in vivo, Sorghum halepense; settings: Sorghum halepense, pre-emergence, 336 h; 0.25 lb/acre; read-out: percent preemergent control
Method in brief: as §1

[11] = test system: annual morning glory; assay: Preemergent control of plant species; type: in vivo, Ipomoea spp.; settings: Ipomoea, pre-emergence, 336 h; 0.25 lb/acre; read-out: percent preemergent control
Method in brief: as §1

[12] = test system: jimsonweed; assay: Preemergent control of plant species; type: in vivo, Datura stramonium; settings: Datura stramonium, pre-emergence, 336 h; 0.25 lb/acre; read-out: percent preemergent control
Method in brief: as §1

[13] = test system: nitrification of ammonium nitrogen; assay: Suppression of nitrification of ammonium nitrogen in soil; settings: 27° C.
Method in brief: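 Value is % NH4-N remaining after a two-week, 27° C incubation of treated soil held at 1/3 bar tension moisture. Nitrate was measured with an ion-selective electrode after extraction with ammonium sulfate solution and 10 min shaking.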

[14] = test system: sugar beet; assay: Preemergent control of plant species; type: in vivo, Beta saccharifera; settings: Beta vulgaris, pre-emergence, 336 h; 0.25 lb/acre; read-out: percent preemergent control
Method in brief: as §1

[15] = test system: sorghum; assay: Preemergent control of plant species; type: in vivo, Sorghum vulgare; settings: Sorghum, pre-emergence, 336 h; 0.25 lb/acre; read-out: percent preemergent control
Method in brief: as §1

[16] = test system: rice; assay: Preemergent control of plant species; type: in vivo, Oryza sativa; settings: Oryza sativa, pre-emergence, 336 h; 0.25 lb/acre; read-out: percent preemergent control
Method in brief: as §1

[17] = test system: wheat; assay: Preemergent control of plant species; type: in vivo, Triticum aestivum; settings: Triticum aestivum, pre-emergence, 336 h; 0.25 lb/acre; read-out: percent preemergent control
Method in brief: as §1

[18] = test system: johnson grass; assay: Postemergent control of plant species; type: in vivo, Sorghum halepense; settings: Sorghum halepense, post-emergence, 336 h, read-out: percent postemergent control
Protocol: (§2) In representative operations, each compound to be utilized in a series of tests is dissolved in acetone to one-half of the final volume (twice the final concentration) to be used and the acetone solution in each case is admixed with an equal volume of water containing 0.1 percent by weight of surface active material. The compositions, generally in the nature of an emulsion, were employed to spray separate respective plant species which had been grown to a 2-4 leaf stage in soil of good nutrient content in a greenhouse. The various beds were positioned side by side and exposed to substantially identical conditions of temperature and light. Each bed was maintained so as to prevent any interaction with test compounds in different seed beds. Other plants were left untreated to serve as controls. After treatment, the plants were maintained for about two weeks under greenhouse conditions conducive for good plant growth and watered as necessary. Control refers to the reduction in growth compared to the observed results of the same untreated species.

[19] = test system: corn; assay: Postemergent control of plant species; type: in vivo, Zea mays; settings: Zea mays, post-emergence, 336 h, read-out: percent postemergent control
Protocol: as §2

[20] = test system: wheat; assay: Postemergent control of plant species; type: in vivo, Triticum aestivum; settings: Triticum aestivum, post-emergence, 336 h, read-out: percent postemergent control
Protocol: as §2

[21] = test system: sugar beet; assay: Postemergent control of plant species; type: in vivo, Beta saccharifera; settings: Beta vulgaris, post-emergence, 336 h, read-out: percent postemergent control
Protocol: as §2

[22] = test system: yellow foxtail; assay: Postemergent control of plant species; type: in vivo, Setaria lutescens; settings: Setaria, post-emergence, 336 h, read-out: percent postemergent control
Protocol: as §2

[23] = test system: velvetleaf; assay: Postemergent control of plant species; type: in vivo, Abutilon theophrasti; settings: Abutilon theophrasti, post-emergence, 336 h, read-out: percent postemergent control
Protocol: as §2

[24] = test system: jimsonweed; assay: Postemergent control of plant species; type: in vivo, Datura stramonium; settings: Datura stramonium, post-emergence, 336 h, read-out: percent postemergent control
Protocol: as §2

[25] = test system: pigweed; assay: Postemergent control of plant species; type: in vivo, Amaranthus spp.; settings: Amaranthus retroflexus, post-emergence, 336 h, read-out: percent postemergent control
Protocol: as §2

[26] = test system: crabgrass; assay: Postemergent control of plant species; type: in vivo, Digitaria spp.; settings: Digitaria sanguinalis, post-emergence, 336 h, read-out: percent postemergent control
Protocol: as §2

[27] = test system: barnyardgrass; assay: Postemergent control of plant species; type: in vivo, Echinochloa crusgalli; settings: Echinochloa crus-galli, post-emergence, 336 h, read-out: percent postemergent control
Protocol: as §2

[28] = test system: wild oats; assay: Postemergent control of plant species; type: in vivo, Avena fatua; settings: Avena fatua, post-emergence, 336 h, read-out: percent postemergent control
Protocol: as §2

[29] = test system: annual morning glory; assay: Postemergent control of plant species; type: in vivo, Ipomoea spp.; settings: Ipomoea, post-emergence, 336 h, read-out: percent postemergent control
Protocol: as §2

[30] = test system: yellow nutsedge; assay: Postemergent control of plant species; type: in vivo, Cyperus esculentus; settings: Cyperus, post-emergence, 336 h, read-out: percent postemergent control
Protocol: as §2

[31] = test system: soybean; assay: Postemergent control of plant species; type: in vivo, Glycine max.; settings: Glycine max, post-emergence, 336 h, read-out: percent postemergent control
Protocol: as §2

[32] = test system: cotton; assay: Postemergent control of plant species; type: in vivo, Gossypium spp.; settings: Gossypium hirsutum, post-emergence, 336 h, read-out: percent postemergent control
Protocol: as §2

[33] = test system: rape; assay: Postemergent control of plant species; type: in vivo, Brassica napus; settings: Brassica napus, post-emergence, 336 h, read-out: percent postemergent control
Protocol: as §2

[34] = test system: rice; assay: Postemergent control of plant species; type: in vivo, Oryza sativa; settings: Oryza sativa, post-emergence, 336 h, read-out: percent postemergent control
Protocol: as §2

[35] = test system: sorghum; assay: Postemergent control of plant species; type: in vivo, Sorghum vulgare; settings: Sorghum, post-emergence, 336 h, read-out: percent postemergent control
Protocol: as §2

| SMILES | % NH4-N Remaining After 2 Weeks Incubation ([13]; 0.06 ppm) [%] | % NH4-N Remaining After 2 Weeks Incubation ([13]; 0.25 ppm) [%] | % NH4-N Remaining After 2 Weeks Incubation ([13]; 1 ppm) [%] | % NH4-N Remaining After 2 Weeks Incubation ([13]; 4 ppm) [%] | pest or weed control at 500 ppm [18] [%] | plant injury at 500 ppm [19] [%] | plant injury at 500 ppm [20] [%] | plant injury at 500 ppm [21] [%] | pest or weed control at 500 ppm [22] [%] | pest or weed control at 500 ppm [23] [%] | pest or weed control at 500 ppm [24] [%] | pest or weed control at 500 ppm [25] [%] | pest or weed control at 500 ppm [26] [%] | pest or weed control at 500 ppm [27] [%] | pest or weed control at 500 ppm [28] [%] | pest or weed control at 500 ppm [29] [%] | pest or weed control at 500 ppm [30] [%] | plant injury at 500 ppm [31] [%] | plant injury at 500 ppm [32] [%] | plant injury at 500 ppm [33] [%] | further results |
| --- | --- | --- | --- | --- | --- | --- | --- | --- | --- | --- | --- | --- | --- | --- | --- | --- | --- | --- | --- | --- | --- |
| COc1ccn2nc(S(=O)(=O)Nc3c(Cl)cccc3Cl)nc2n1 [Compound 208] | 38 | 38 | 42 | 37 |  |  |  |  |  |  |  |  |  |  |  |  |  |  |  |  | plant injury at 280.212 g/ha [1]: 0%; plant injury at 280.212 g/ha [2]: 100%; plant injury at 280.212 g/ha [3]: 100%; pest or weed control at 280.212 g/ha [4]: 0%; plant injury at 280.212 g/ha [5]: 45%; pest or weed control at 280.212 g/ha [6]: 0%; pest or weed control at 280.212 g/ha [7]: 90%; pest or weed control at 280.212 g/ha [8]: 60%; pest or weed control at 280.212 g/ha [9]: 0%; pest or weed control at 280.212 g/ha [10]: 0%; pest or weed control at 280.212 g/ha [11]: 40%; pest or weed control at 280.212 g/ha [12]: 90%; plant injury at 280.212 g/ha [14]: 100%; plant injury at 280.212 g/ha [15]: 30%; plant injury at 280.212 g/ha [16]: 0%; plant injury at 280.212 g/ha [17]: 0% |
| Cc1cc(C)n2nc(S(=O)(=O)N(C)c3c(Cl)cccc3Cl)nc2n1 [Compound 260, 5,7,N-trimethyl-N-(2,6-dichlorophenyl)-1,2,4-triazolo[1,5-a]pyrimidine-2-sulfonamide] | 0 | 14 | 37 | 45 | 95 | 0 | 0 | 100 | 90 | 90 | 95 | 45 | 0 | 50 | 0 | 40 | 0 | 90 | 80 | 95 | plant injury at 500 ppm [34]: 0%; plant injury at 500 ppm [35]: 25% |
| COC(=O)c1cccc(C)c1N(C)S(=O)(=O)c1nc2nc(C)cc(C)n2n1 [Compound 261] | 0 | 0 | 21 | 18 | 100 | 0 | 0 | 90 | 95 | 95 | 95 | 65 | 10 | 20 | 0 | 90 | 0 | 90 | 60 | 95 | plant injury at 500 ppm [34]: 0%; plant injury at 500 ppm [35]: 30% |
